# Records with an inconclusive call do not appear. Active and inactive are the calls of the source. No rule for the calls is given here.
# System: LMP1-induced NF-kappaB luciferase reporter cells, luminescence
# Assay: inhibitors of LMP1-driven NF-kB reporter, dose response, cell-based, EBV LMP1, luciferase, dry powder, set 2 (AID 624361)
# Conditions: not given
row,SMILES,AC35 [µM]
1,CN(C)c1ccc2c(c1)[C@@H]1C[C@@H](CC(=O)NCc3ccc(Oc4ccccc4)cc3)O[C@H](CO)[C@@H]1O2,12.9
2,O=C(Nc1ccc(C(F)(F)F)cc1)Nc1ccc2c(c1)[C@H]1C[C@@H](CC(=O)N3CCc4ccccc4C3)O[C@@H](CO)[C@H]1O2,21.7
3,C[C@H](CO)N1C[C@H](C)[C@H](CN(C)C(=O)NC2CCCCC2)Oc2cc(/C=C/c3ccccc3)ccc2S1(=O)=O,24
4,C[C@@H]1CN([C@H](C)CO)S(=O)(=O)c2ccc(C#C[C@@H](C)O)cc2O[C@H]1CN(C)Cc1ccc(-c2ccccc2)cc1,22.4
5,O=C(C[C@@H]1CC[C@@H]2[C@H](COC[C@@H](O)CN2Cc2ccc(Oc3ccccc3)cc2)O1)N1CCc2ccccc2C1,17.8
6,Cc1cc(C(=O)Nc2ccc3c(c2)C(=O)N(C)[C@H]2CC[C@@H](CC(=O)NCc4ccc(-c5ccccc5)cc4)O[C@H]2CO3)no1,14.2

# System: not listed separately
# Assay: as above
# Conditions: LMP1-induced NF-kappaB luciferase reporter cells, luminescence; at 35 µM (top of the series)
row,SMILES,"activity change, negative = inhibition"
1,C[C@@H]1CN([C@@H](C)CO)C(=O)Cc2cc(NC(=O)Cc3ccccc3)ccc2O[C@@H]1CN(C)Cc1ccc(C(F)(F)F)cc1,-12.6% (inactive)
2,C[C@@H](NC(=O)C[C@H]1C=C[C@H](NC(=O)Cc2ccccn2)[C@H](CO)O1)c1ccccc1,9.56% (inactive)
3,C[C@H](NC(=O)C[C@H]1C=C[C@H](NC(=O)Cc2ccccn2)[C@@H](CO)O1)c1ccccc1,3.66% (inactive)
4,COC(=O)C[C@H]1C[C@H]2c3cc(NC(=O)CN(C)C)ccc3O[C@H]2[C@H](CO)O1,-4.37% (inactive)
5,CS(=O)(=O)Nc1ccc2c(c1)[C@@H]1C[C@H](CC(=O)NCC3CC3)O[C@H](CO)[C@@H]1O2,-4.41% (inactive)
6,C[C@H](NC(=O)C[C@H]1C=C[C@@H](NC(=O)Cc2ccccn2)[C@H](CO)O1)c1ccccc1,-1.8% (inactive)
7,C[C@@H](NC(=O)C[C@H]1C=C[C@H](NC(=O)Cc2ccccn2)[C@@H](CO)O1)c1ccccc1,9.43% (inactive)
8,O=C(Cc1ccccn1)NCC[C@H]1CC[C@H](NC(=O)Nc2ccc(Cl)cc2)[C@@H](CO)O1,-4.61% (inactive)
9,O=C(Cc1ccccn1)NCC[C@H]1CC[C@@H](NC(=O)Nc2ccc(Cl)cc2)[C@@H](CO)O1,-0.381% (inactive)
10,O=C(Cc1ccccn1)NCC[C@@H]1CC[C@@H](NC(=O)Nc2ccc(Cl)cc2)[C@@H](CO)O1,1.94% (inactive)
11,C[C@@H](NC(=O)C[C@H]1C=C[C@@H](NC(=O)Cc2ccccn2)[C@H](CO)O1)c1ccccc1,-5.56% (inactive)
12,C[C@H]1CN([C@@H](C)CO)C(=O)Cc2cc(NC(=O)Cc3ccccc3)ccc2O[C@@H]1CN(C)Cc1ccc(C(F)(F)F)cc1,-12.8% (inactive)
13,C[C@@H](NC(=O)C[C@@H]1C=C[C@H](NC(=O)Cc2ccccn2)[C@@H](CO)O1)c1ccccc1,8.29% (inactive)
14,C[C@H](CO)N1C[C@H](C)[C@H](CN(C)Cc2ccc(C(F)(F)F)cc2)Oc2ccc(NC(=O)Cc3ccccc3)cc2CC1=O,4.01% (inactive)
15,C[C@@H](NC(=O)C[C@@H]1C=C[C@H](NC(=O)Cc2ccccn2)[C@H](CO)O1)c1ccccc1,-1.52% (inactive)
16,C[C@H]1CN([C@@H](C)CO)C(=O)c2c(c3ccccc3n2C)-c2ccccc2CO[C@@H]1CN(C)C(=O)Nc1ccc(F)cc1,-12.4% (inactive)
17,C[C@H](CO)N1C[C@H](C)[C@@H](CN(C)Cc2ccc(C(F)(F)F)cc2)Oc2ccc(NC(=O)Cc3ccccc3)cc2CC1=O,-11.3% (inactive)
18,O=C(Cc1ccccn1)NCC[C@@H]1CC[C@@H](NC(=O)Nc2ccc(Cl)cc2)[C@H](CO)O1,10.1% (inactive)
19,C[C@@H]1CN([C@@H](C)CO)C(=O)c2c(c3ccccc3n2C)-c2ccccc2CO[C@H]1CN(C)C(=O)Nc1ccc(F)cc1,-8.29% (inactive)
20,C[C@@H](NC(=O)C[C@@H]1C=C[C@@H](NC(=O)Cc2ccccn2)[C@H](CO)O1)c1ccccc1,5.05% (inactive)

# From PubChem BioAssay AID624361 (Broad Institute, 2012)
